# Laboratory results taken from paper PMC12388242, “Cytotoxic Peptidic Metabolites Isolated from the Soil-Derived Fungus Trichoderma atroviride” (Molecules, 2025).
# Where “and” joins values, the source holds several entries; their conditions need not be identical. Identical values can stand only once. Like-named read-outs stand apart in the source and are kept apart here. Where a SMILES comes first, the peptide text is derived from it. [ ]: non-standard residue; d: D form. The star is where a group is joined. X2 = CO[C@@H]1NC(=O)CC[C@@H]1N*; X3 = O=C1CC[C@H](N*)[C@@H](O)N1; X1 = O=C1CC[C@H](N*)[C@H](O)N1; Valol = CC(C)[C@@H](CO)N*; Aib = CC(C)(N)C(=O)O
# Columns and labels:
# [1] = test system: SK-OV-3 (ovarian cancer) cells; assay: MTT cell viability assay, SK-OV-3 cells; conditions: for IC50: read-out: IC50 against SK-OV-3 (Ovarian Cancer)
# Protocol: (§1) HCT-8 (colorectal carcinoma), and SK-OV-3 (ovarian cancer) cell lines were obtained from the American Type Culture Collection (ATCC; Manassas, VA, USA). The cells were cultured in RPMI-1640 medium (Cytiva, Marlborough, MA, USA) supplemented with 10% fetal bovine serum (FBS), 100 U/mL penicillin, and streptomycin, and incubated in a humidified atmosphere with 5% CO2 at 37 °C [23].
# (§2) Cell viability was determined using the 3-(4,5-dimethylthiazol-2-yl)-2,5-diphenyltetrazolium bromide (MTT) colorimetric assay (Sigma Chemical Co., St. Louis, MO). Cells were seeded in 96-well plates and incubated at 37 °C for 24 h. Subsequently, cells were treated with isolated compounds at concentrations of 2, 20, and 100 μM for an additional 24 h. After treatment, 25 μL of MTT solution (5 mg/mL; Thermo Fisher Scientific, Waltham, MA, USA) was added to each well and incubated for 3 h. The resulting formazan crystals were dissolved in 100 μL of dimethyl sulfoxide, and the absorbance was measured at 550 nm using an ELx808 microplate reader (BioTek Instruments Inc., Winooski, VT, USA).
# [2] = test system: HCT-8 (colon cancer) cells; assay: MTT cell viability assay, HCT-8 cells; conditions: for IC50: read-out: IC50 against HCT-8 (Colon Cancer)
# Protocol: as §1, §2
# [3] = MTT colorimetric assay, 96-well plates, treated at 2, 20, and 100 μM for 24 h, absorbance at 550 nm, mean ± standard deviation from triplicate experiments
"IC50 ([1]; Homo sapiens, SK-OV-3, 24 h)","IC50 ([2]; Homo sapiens, HCT-8, 24 h)",Compound,"cytotoxicity against SK-OV-3 cells, in words [1]","IC50 [1, 3]","cytotoxicity against HCT-8 cells, in words [2]","IC50 [2, 3]"
,,"CC[C@H](C)[C@H](NC(=O)C(C)(C)NC(C)=O)C(=O)NC(C)(C)C(=O)N[C@@H](Cc1ccc(O)cc1)C(=O)NC(C)(C)C(=O)N[C@@H](CC(C)C)C(=O)NC(C)(C)C(=O)N[C@@H](C)C(=O)NC(C)(C)C(=O)NC(C)(C)C=O [Compound 11, bukhansantaibal A] (Ac-[Aib]I[Aib]Y[Aib]L[Aib]A[Aib][Aib]-aldehyde)",inactivity,> 50 µM,inactivity,> 50 µM
,,"CC[C@H](C)[C@H](NC(=O)C(C)(C)NC(=O)[C@@H](NC(=O)[C@@H]1CCCN1C(=O)C(C)(C)NC(=O)[C@H](CC(C)C)NC(=O)[C@H](CO)NC(=O)C(C)(C)NC(=O)C(C)(C)NC(=O)C(C)(C)NC(=O)[C@H](CCC(N)=O)NC(=O)C(C)(C)NC(=O)C(C)(C)NC(=O)[C@H](C)NC(=O)CNC(=O)[C@H](Cc1c[nH]c2ccccc12)NC(C)=O)C(C)C)C(=O)N[C@H]1CCC(=O)N[C@H]1O [Compound 7, bukhansantaibol G] (Ac-WGA[Aib][Aib]Q[Aib][Aib][Aib]SL[Aib]PV[Aib]I-X1)",,> 50 µM,,> 50 µM
,,"CC[C@H](C)[C@H](NC(=O)C(C)(C)NC(=O)[C@@H](NC(=O)[C@@H]1CCCN1C(=O)C(C)(C)NC(=O)[C@H](CC(C)C)NC(=O)[C@H](CO)NC(=O)C(C)(C)NC(=O)C(C)(C)NC(=O)C(C)(C)NC(=O)[C@H](CCC(N)=O)NC(=O)C(C)(C)NC(=O)C(C)(C)NC(=O)[C@H](C)NC(=O)CNC(=O)[C@H](Cc1c[nH]c2ccccc12)NC(C)=O)C(C)C)C(=O)N[C@H]1CCC(=O)N[C@@H]1O [Compound 8, bukhansantaibol H] (Ac-WGA[Aib][Aib]Q[Aib][Aib][Aib]SL[Aib]PV[Aib]I-X3)",,> 50 µM,,> 50 µM
,,"CC[C@H](C)[C@H](NC(=O)C(C)(C)NC(=O)[C@@H](NC(=O)[C@@H]1CCCN1C(=O)C(C)(C)NC(=O)[C@H](CC(C)C)NC(=O)[C@H](CO)NC(=O)C(C)(C)NC(=O)C(C)(C)NC(=O)C(C)(C)NC(=O)[C@H](CCC(N)=O)NC(=O)C(C)(C)NC(=O)C(C)(C)NC(=O)[C@H](C)NC(=O)CNC(=O)[C@H](Cc1ccccc1)NC(C)=O)C(C)C)C(=O)N[C@@H](CCC(N)=O)C(=O)N[C@@H](CCC(N)=O)C(=O)N[C@H](CO)C(C)C [Compound 3, bukhansantaibol C] (Ac-FGA[Aib][Aib]Q[Aib][Aib][Aib]SL[Aib]PV[Aib]IQQ-Valol)",,19.6 ± 0.1 µM,,18.5 ± 0.6 µM
,,"CC[C@H](C)[C@H](NC(=O)C(C)(C)NC(=O)[C@@H](NC(=O)[C@@H]1CCCN1C(=O)C(C)(C)NC(=O)[C@H](CC(C)C)NC(=O)[C@H](CO)NC(=O)C(C)(C)NC(=O)C(C)(C)NC(=O)C(C)(C)NC(=O)[C@H](CCC(N)=O)NC(=O)C(C)(C)NC(=O)C(C)(C)NC(=O)[C@H](C)NC(=O)CNC(=O)[C@H](Cc1ccccc1)NC(C)=O)C(C)C)C(=O)N[C@H]1CCC(=O)N[C@H]1OC [Compound 10, bukhansantaibol J] (Ac-FGA[Aib][Aib]Q[Aib][Aib][Aib]SL[Aib]PV[Aib]I-X2)",marked loss of cytotoxicity,> 50 µM,marked loss of cytotoxicity,> 50 µM
,,"CC[C@H](C)[C@H](NC(=O)C(C)(C)NC(C)=O)C(=O)NC(C)(C)C(=O)N[C@@H](Cc1ccc(O)cc1)C(=O)NC(C)(C)C(=O)N[C@H](C(=O)NC(C)(C)C(=O)N[C@@H](C)C(=O)NC(C)(C)C(=O)NC(C)(C)C=O)[C@@H](C)CC [Compound 12, bukhansantaibal B] (Ac-[Aib]I[Aib]Y[Aib]I[Aib]A[Aib][Aib]-aldehyde)",inactivity,> 50 µM,inactivity,> 50 µM
37.3 ± 1.8 µM,33.7 ± 1.5 µM,"COc1cc([C@@H]2c3cc4c(cc3[C@@H](O[C@@H]3O[C@@H]5CO[C@@H](C)O[C@H]5[C@H](O)[C@H]3O)[C@H]3COC(=O)[C@H]23)OCO4)cc(OC)c1O [Etoposide, reference compound]",,,,
,,"CC(=O)N[C@@H](Cc1c[nH]c2ccccc12)C(=O)NCC(=O)N[C@@H](C)C(=O)NC(C)(C)C(=O)NC(C)(C)C(=O)N[C@@H](CCC(N)=O)C(=O)NC(C)(C)C(=O)NC(C)(C)C(=O)NC(C)(C)C(=O)N[C@@H](CO)C(=O)N[C@@H](CC(C)C)C(=O)NC(C)(C)C(=O)N1CCC[C@H]1C(=O)N[C@H](C(=O)NC(C)(C)C(=O)N[C@@H](CC(C)C)C(=O)N[C@@H](CCC(N)=O)C(=O)N[C@@H](CCC(N)=O)C(=O)N[C@H](CO)C(C)C)C(C)C [Compound 2, bukhansantaibol B] (Ac-WGA[Aib][Aib]Q[Aib][Aib][Aib]SL[Aib]PV[Aib]LQQ-Valol)",,13.8 ± 1 µM,,11.7 ± 0.8 µM
,,"CC[C@H](C)[C@H](NC(=O)C(C)(C)NC(=O)[C@@H](NC(=O)[C@@H]1CCCN1C(=O)C(C)(C)NC(=O)[C@H](CC(C)C)NC(=O)[C@H](C)NC(=O)C(C)(C)NC(=O)C(C)(C)NC(=O)C(C)(C)NC(=O)[C@H](CCC(N)=O)NC(=O)C(C)(C)NC(=O)C(C)(C)NC(=O)[C@H](C)NC(=O)CNC(=O)[C@H](Cc1c[nH]c2ccccc12)NC(C)=O)C(C)C)C(=O)N[C@@H](CCC(N)=O)C(=O)N[C@@H](CCC(N)=O)C(=O)N[C@H](CO)C(C)C [Compound 4, bukhansantaibol D] (Ac-WGA[Aib][Aib]Q[Aib][Aib][Aib]AL[Aib]PV[Aib]IQQ-Valol)",,< 10 µM and 5.7 µM,,< 10 µM and 7.7 µM
,,"CC[C@H](C)[C@H](NC(=O)C(C)(C)NC(=O)[C@@H](NC(=O)[C@@H]1CCCN1C(=O)C(C)(C)NC(=O)[C@H](CC(C)C)NC(=O)[C@H](CO)NC(=O)C(C)(C)NC(=O)C(C)(C)NC(=O)C(C)(C)NC(=O)[C@H](CCC(N)=O)NC(=O)C(C)(C)NC(=O)C(C)(C)NC(=O)[C@H](C)NC(=O)CNC(=O)[C@H](Cc1ccccc1)NC(C)=O)C(C)C)C(=O)N[C@@H](CCC(=O)O)C(=O)N[C@@H](CCC(N)=O)C(=O)N[C@H](CO)C(C)C [Compound 6, bukhansantaibol F] (Ac-FGA[Aib][Aib]Q[Aib][Aib][Aib]SL[Aib]PV[Aib]IEQ-Valol)",,> 50 µM,,> 50 µM
,,"CC[C@H](C)[C@H](NC(=O)C(C)(C)NC(=O)[C@@H](NC(=O)[C@@H]1CCCN1C(=O)C(C)(C)NC(=O)[C@H](CC(C)C)NC(=O)[C@H](CO)NC(=O)C(C)(C)NC(=O)C(C)(C)NC(=O)C(C)(C)NC(=O)[C@H](CCC(N)=O)NC(=O)C(C)(C)NC(=O)C(C)(C)NC(=O)[C@H](C)NC(=O)CNC(=O)[C@H](Cc1c[nH]c2ccccc12)NC(C)=O)C(C)C)C(=O)N[C@H]1CCC(=O)N[C@H]1OC [Compound 9, bukhansantaibol I] (Ac-WGA[Aib][Aib]Q[Aib][Aib][Aib]SL[Aib]PV[Aib]I-X2)",marked loss of cytotoxicity,> 50 µM,marked loss of cytotoxicity,> 50 µM
